{
  "source": "patent US12180255B2",
  "about": "“Compositions and methods for derepressing RE1 silencing transcription factor target genes” (Alcamena Stem Cell Therapeutics, LLC, priority 2019, dated 2024)",
  "key": {"[1]": {"test": "Mechanical pain threshold after SNI, morphine analgesia", "assay_type": "in vivo", "details": "single S.C. injection, n=4", "protocol": "FIG. 23. […] B. Analgesic effect of single S.C. injection of morphine on MT post-injury (SNI+MOR, n=4). Mean±SEM; F=4.62, *p<0.05 by one-way ANOVA before and after treatment; mean difference and 95% CI=−7.3, −14.5 to −0.135, p<0.05 by Bonferroni's Multiple Comparison test. 20 mg/Kg of MOR (n=4; F=19.03, **p<0.001 by one-way ANOVA)."}, "[2]": {"test": "Conditioned Place Preference after morphine in SNI mice", "assay_type": "in vivo", "details": "4 doses", "excerpt": "FIG. 24. Conditioned Place Preference (CPP) after conditioning with saline (control) and 4 doses of morphine (MOR) in SNI mice."}, "NBFL cells": {"system": "NBFL cells", "test": "KV4.3 mRNA in NBFL cells transfected with plasmid expressing RPP", "assay_type": "cell-based", "protocol": "FIG. 8. mRNA levels of KV4.3 in NBFL cells 48 h after CTDSP1 inhibition. Cells were transfected with a plasmid expressing RPP (SEQ ID NO: 1) with GFP (+) or a control peptide with GFP (−). 24 hours after transfection, cells were sorted based on fluorescence intensity. Error bars represent standard deviation, n=2.\nTransient Transfections and Cell Culture. NBFL cells were grown as previously described^120. 0.5 M NFBL cells were seeded on a 35 mm dish, incubated at 37° C. overnight, and transfected with 2 μg of REST (SEQ. ID NO: 1)-IRES-GFP cDNA^2 using lipofectamine2000 (Life Technologies), following manufacturer recommendations. After a 48 hour incubation period, cell were sorted by fluorescence activated cell sorting (FACS),\nmRNA extraction and quantification. mRNA was extracted, as described in Example 10, from GFP+ and − cells; mRNA levels of KV4.3 were determined using real-time RT-PCR^116. Gene expression was normalized using β-actin (ACTB) as an internal housekeeping control. The β-actin primers used are the same as Example 10. The KV4.3 primers were: forward: […] (SEQ ID NO: 336) and reverse: […] (SEQ ID NO: 337)."}, "His-CTDSP1": {"target": "T1, His-CTDSP1 (Homo sapiens, UniProt Q9GZU7)", "T1 construct": "made in house; host or cells: E. coli 10G (Lucigen), pBAD-HisA", "T1 sequence (Q9GZU7 with tags, fused parts or gaps)": "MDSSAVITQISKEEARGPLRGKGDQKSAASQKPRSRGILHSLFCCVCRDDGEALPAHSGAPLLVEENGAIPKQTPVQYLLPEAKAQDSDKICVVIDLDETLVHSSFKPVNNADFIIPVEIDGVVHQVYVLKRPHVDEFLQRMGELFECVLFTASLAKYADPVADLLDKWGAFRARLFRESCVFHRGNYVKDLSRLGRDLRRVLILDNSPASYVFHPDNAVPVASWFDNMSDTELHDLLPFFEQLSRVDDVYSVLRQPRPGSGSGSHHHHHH", "test": "Binding affinity of RPP for CTDSP1, Monolith (NanoTemper)", "details": "His-CTDSP1 40 nM labelled with RED-tris NTA dye 20 nM", "protocol": "FIG. 2. Binding affinity of the REST phosphomimetic peptide (RPP) for CTDSP1 was measured using the Monolith (NanoTemper). […] Binding was assessed by fluorescently labelling the His tag on CTDSP1 (40 nM) with RED-tris NTA dye (20 nM) and measuring the change in fluorescents when RPP (up to […]) is bound.\nExpression constructs for His-CTDSPL (Table 2; SEQ ID NO: 162) and GST-RPP (Table 4; SEQ ID NO: 164) were constructed and purified as described in Example 2. The His tag on CTDSP1 (40 nM) was labelled with RED-tris NTA dye (20 nM), with a […] dye to CTDSP1 ratio, and unbound dye was removed by gravity-flow size exclusion. Binding affinity of the linear GST-RPP (Table 4; SEQ ID NO: 165) to His-CTDSP1 (Table 2; SEQ ID NO:163) was determined using Monolith (NanoTemper), following manufacturer recommendations. Results of the binding assay are presented in FIG. 2: The RPP (Table 4; SEQ ID NO: 165) was assessed for binding to His-CTDSP1 at several concentrations ranging from low pM up to 0.5 μM."}},
  "data": [
    {"molecule": "CN1CC[C@]23c4c5ccc(O)c4O[C@H]2[C@@H](O)C=C[C@H]3[C@H]1C5", "note": "[morphine]", "values": [
      {"measurement": "mechanical pain threshold (MT), mean difference before and after treatment", "setting": "[1]", "value": "−7.3"},
      {"measurement": "Conditioned Place Preference (CPP)", "setting": "[2]", "value": "induced CPP in a dose-dependent manner"}
    ]},
    {"molecule": "TEDLEPPEPPLPKEN [SEQ ID NO: 1, REST phosphomimetic peptide (RPP)]", "values": [
      {"measurement": "increase in KV4.3 mRNA", "setting": "NBFL cells; NBFL cells transfected with RPP", "value": 2, "unit": "fold"},
      {"measurement": "Increase, KV4.3 mRNA", "setting": "NBFL cells; NBFL, 2 μg (transfected), 48 h", "value": 3, "unit": "x"}
    ]},
    {"molecule": "SEQ ID NO: 165: RPP-GST fusion protein, MCTEDLEPPEPPLPKENC linked to GST (Table 4)", "values": [
      {"measurement": "Kd", "setting": "His-CTDSP1", "value": "~0.13", "unit": "nM"}
    ]}
  ]
}
